≈ marks a conversion by molar mass, not a printed value. Where two headings read alike, the source gives them in different places.
Key:
[1] = test system: Caulobacter DNA replication; assay: Analysis of DNA replication (32P-labeled dGTP incorporation, DNA-content FACS); format: cell-based, Caulobacter crescentus; conditions: 10 μg/ml A22 or 5 mg/ml HU
From the text: We first examined the incorporation of radiolabeled dGTP into DNA, which linearly correlates with the rate of DNA replication. […] To assess the effect of A22 on DNA replication during the cell cycle, the radiolabeled nucleotide incorporation assay was repeated using synchronized cultures at different points in the cell cycle. Untreated cells display a dramatic rise in radioactivity levels characteristic of DNA replication initiation at the swarmer-to-stalked cell transition. This rise in radioactivity levels was also observed in A22-treated cells (FIG. 6A).
Finally, we examined the DNA content of A22-treated cells by FACS.
Analysis of DNA Replication. DNA replication was assessed by incorporation of 32P-labeled dGTP) or chromomycin-stained DNA-content FACS analysis as described previously.

[2] = test system: HoIB-GFP; assay: HoIB-GFP (replisome) localization; format: cell-based, Caulobacter crescentus; conditions: 1 hr treatment
Experimental: To assess the ability of these cells to assemble a replisome at the replication origins, A22 was administered to cells expressing a fusion of GFP to the HoIB subunit of DNA polymerase.

[3] = test system: E. coli MG1655; assay: Determination of minimum inhibitory concentration (MIC); format: cell-based; conditions: Escherichia coli, MG1655, Example 2; methods as in Example 1; read-out: MIC E. coli
Experimental: (§1) Determination of minimum inhibitory concentration (MIC). MICs were also determined on Mueller Hinton agar plates (0.2% beef extract, 1.75% acid digest of casein, 0.15% soluble starch, 1.5% agar, pH 7.3).
(§2) Determination of MIC Minimal inhibitory concentrations (MICs) were determined using a standard 2-fold serial dilution format on L agar plates. Ten microliters of stationary culture diluted in 0.85% NaCl to 10^6 cells/ml were spotted on per plate. […] MICs were also determined on Mueller Hinton agar plates (0.2% beef extract, 1.75% acid digest of casein, 0.15% soluble starch, 1.5% agar, pH 7.3).

[4] = test system: P. putida NBRC14164; assay: as above; format: cell-based, Pseudomonas putida; conditions: Pseudomonas putida, NBRC14164, Example 2; methods as in Example 1; read-out: MIC P. putida
Experimental: as §1, §2

[5] = test system: S. typhimurium NBRC13245; assay: as above; format: cell-based, Salmonella typhimurium; conditions: Salmonella enterica, Example 2; methods as in Example 1; read-out: MIC S. typhimurium
Experimental: as §1, §2

[6] = test system: B. subtilis 168; assay: as above; format: cell-based, Bacillus subtilis; conditions: Bacillus subtilis, 168, Example 2; methods as in Example 1; read-out: MIC B. subtilis
Experimental: as §1, §2

[7] = test system: S. aureus subsp. aureus NBRC15035; assay: as above; format: cell-based, Staphylococcus aureus; conditions: Staphylococcus aureus, NBRC15035, Example 2; methods as in Example 1; read-out: MIC S. aureus
Experimental: as §1, §2

[8] = test system: E. coli MG1655; assay: Microscopic observation of cell shape; format: cell-based; conditions: Example 2; methods as in Example 1
Experimental: Microscopic observation. E. coli K-12 strain MG1655 (F^− λ^−) was grown in Lennox broth containing 1% Polypepton, 0.5% yeast extract, 0.5% NaCl, and 0.1% glucose (pH 7.2). Cells spread on a slide glass were treated with methanol for 5 min and covered with poly-L-lysine. The fixed cells were observed by the differential interference contrast system through an Axioskop 2 microscope (Carl Zeiss Co., Ltd., Oberkochen, Germany). To observe the anucleate cells, cells were stained with a 4′,6-diamidino-2-phenylindole (DAPI) solution (5 μg/ml in saline) and then observed by the fluorescence phase-contrast combined method.
The effect of each compound on E. coli cell morphology was next examined.

[9] = test system: E. coli K-12 strains (ponB, mreB alleles); assay: MICs of mecillinam and A22 for E. coli K-12 strains; format: cell-based; conditions: Escherichia coli
Experimental: as §2

[10] = test system: E. coli JA221, JST975; assay: Cell shapes of A22-resistant mutant JA221 and parent JST975; format: cell-based; conditions: mecillinam treatment (1 μg/ml, 2 h, 37° C.)
Experimental: FIG. 9. Effects of A22 and mecillinam on cell shapes of the A22-resistant mutant JA221. Exponentially growing cells of the A22-resistant mutant strain JA221 and the parent strain JST975 were treated with 1 μg/ml mecillinam or 10 μg/ml A22 for 2 h at 37° C. Differential interference contrast microphotographs are shown.
After prolonged (9 days) incubation of the JST975 assay plates, several isolated colonies that grew up within the clear growth inhibitory zones were purified on L plates and their A22-sensitivity was examined.

Row | Compound | Incorporation of radiolabeled dGTP, synchronized cultures (replication initiation) [1] | HoIB-GFP localization [2] | MIC [3] [µg/mL] | MIC [4] [µg/mL] | MIC [5] [µg/mL] | MIC [6] [µg/mL] | MIC [7] [µg/mL] | Shape [8] | MIC ([9]; read-out: MICs, strain JA221 (ponB −, mreB221)) [µg/mL] | MIC ([9]; read-out: MICs, strain JE1011 (ponB +, mreB +)) [µg/mL] | MIC ([9]; read-out: MICs, strain JM109/pMW218 (ponB +, mreB +/−)) [µg/mL] | MIC ([9]; read-out: MICs, strain JM109/pMreB1 (ponB +, mreB +/+)) [µg/mL] | MIC ([9]; read-out: MICs, strain JM109/pMreB221 (ponB +, mreB +/mreB221)) [µg/mL] | MIC ([9]; read-out: MICs, strain JST975 (ponB −, mreB +)) [µg/mL] | MIC ([9]; read-out: MICs, strain JSTA220 (ponB −, mreB +)) [µg/mL] | MIC ([9]; read-out: MICs, strain JSTA221 (ponB −, mreB221)) [µg/mL] | MIC ([9]; read-out: MICs, strain WA220 (ponB +, mreB +)) [µg/mL] | MIC ([9]; read-out: MICs, strain WA221 (ponB +, mreB221)) [µg/mL] | Cell shape of resistant mutant JA221 [10]
1 | NC(=O)NO [HU, hydroxyl-urea, reference compound] | no such increase in radioactivity levels | rapid delocalization of HoIB-GFP | – | – | – | – | – | – | – | – | – | – | – | – | – | – | – | – | –
2 | CC1(C)S[C@@H]2[C@H](/N=C/N3CCCCCC3)C(=O)N2[C@H]1C(=O)O [mecillinam, reference compound] | – | – | 0.0977 (≈ 0.3 µM) | > 100 | 0.0977 (≈ 0.3 µM) | 12.5 (≈ 38.4 µM) | 50 (≈ 154 µM) | Sphere | 0.125 (≈ 0.384 µM) | 0.25 (≈ 0.768 µM) | 0.125 (≈ 0.384 µM) | 0.125 (≈ 0.384 µM) | 0.125 (≈ 0.384 µM) | 0.125 (≈ 0.384 µM) | 0.125 (≈ 0.384 µM) | 0.125 (≈ 0.384 µM) | 0.25 (≈ 0.768 µM) | 0.25 (≈ 0.768 µM) | formed spherical cells

Reference: US7855228B2, “Antibiotics targeting MreB” (The Board of Trustees of the Leland Stamford Junior …, priority 2005, dated 2010)
